Test results published in PubChem BioAssay (NCI).
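Exposure lasted 48 hours, with cells grown in 96-well plates and compounds tested at five concentrations. Here, GI50 denotes the concentration required for 50% inhibition of growth. TGI: concentration producing complete growth inhibition.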

Columns and labels:
Experiment in all cases: NCI-60 cell line screen, 48 h
A549 NSCLC = system: A549 NSCLC
HCT-15 colon = system: HCT-15 colon
HS 578T breast = system: HS 578T breast
NCI-H226 lung = system: NCI-H226 lung
OVCAR-3 ovarian = system: OVCAR-3 ovarian
OVCAR-5 ovarian = system: OVCAR-5 ovarian
PC-3 prostate = system: PC-3 prostate
SK-MEL-2 melanoma = system: SK-MEL-2 melanoma
SNB-75 CNS = system: SNB-75 CNS
UO-31 renal = system: UO-31 renal

| SMILES | TGI (A549 NSCLC) [µM] | TGI (HCT-15 colon) [µM] | TGI (HS 578T breast) [µM] | TGI (NCI-H226 lung) [µM] | TGI (OVCAR-3 ovarian) [µM] | TGI (OVCAR-5 ovarian) [µM] | TGI (PC-3 prostate) [µM] | TGI (SK-MEL-2 melanoma) [µM] | TGI (SNB-75 CNS) [µM] | TGI (UO-31 renal) [µM] | GI50 (A549 NSCLC) [µM] | GI50 (HCT-15 colon) [µM] | GI50 (HS 578T breast) [µM] | GI50 (NCI-H226 lung) [µM] | GI50 (OVCAR-3 ovarian) [µM] | GI50 (OVCAR-5 ovarian) [µM] | GI50 (PC-3 prostate) [µM] | GI50 (SK-MEL-2 melanoma) [µM] | GI50 (SNB-75 CNS) [µM] | GI50 (UO-31 renal) [µM] |
| --- | --- | --- | --- | --- | --- | --- | --- | --- | --- | --- | --- | --- | --- | --- | --- | --- | --- | --- | --- | --- |
| COC(=O)c1ccc(/C=C(\c2ccc([N+](=O)[O-])o2)S(=O)(=O)c2ccc(NC(C)=O)cc2)o1 | 34.1 | 6.83 | 6.34 | 7.98 | 19.7 | 10.9 | 29.8 | 39.2 | 36.2 | 18.2 |  |  |  |  |  |  |  |  |  |  |
| O=C(C=P(c1ccccc1)(c1ccccc1)c1ccccc1)CCl | 8.14 | 4.21 | 11 | 2.97 | 2.68 | 3.73 | 3.34 | 3.87 | 7.57 | 2.38 | 2.16 | 0.881 | 1.53 | 1.31 | 1.33 | 1.46 | 1.54 | 1.79 | 1.19 | 1.04 |
| O=C1CC(c2ccccc2)Cc2nc3ccc(Br)cc3cc21 (stereo not given) | > 100 | > 100 | > 94.5 | > 20.3 | 1.14 | > 100 | > 100 | > 100 | > 90.1 | > 100 | 0.378 | 0.476 | 0.408 | 0.908 | 0.304 | 0.757 | 0.296 | 0.283 | 0.187 | 0.689 |
| NC(=S)N/N=C1\c2ccccc2-c2c(F)c(F)c(F)c(F)c21 | > 58.4 | 4.61 | 39.5 | 28.9 | 3.88 | 30.5 | 28.3 | 21.7 | 21.6 | 9.03 | 16.7 | 2.05 | 6.25 | 13.1 | 2.06 | 13.6 | 10.1 | 5.38 | 6.36 | 4.31 |
| Cn1c(=O)nc2n(-c3ccc(Cl)cc3)c3cc(Cl)ccc3nc-2c1=O | 33 | 3.69 | 5.59 | 42.5 | 4.19 | 29.1 | 24.1 | 5.63 | 14.8 | 24.2 |  |  |  |  |  |  |  |  |  |  |
| CCCCNS(=O)(=O)c1n[nH]c(=O)[nH]c1=O | > 100 | > 100 | > 100 | > 100 | > 100 | > 100 | > 100 | > 100 | > 100 | > 100 |  |  |  |  |  |  |  |  |  |  |
| Oc1ccc2c3c1OC1c4[nH]ncc4C[C@H]4[C@@H](C2)N(CC2CC2)CC[C@]314 (stereo not given in full) | > 100 | > 100 | > 100 | > 100 | > 100 | > 100 | > 100 | > 100 | > 100 | > 100 |  |  |  |  |  |  |  |  |  |  |
| Cn1c2c(c3ccccc31)CCN(CCCCN1CCN(c3ccccc3)CC1)C2=O | > 100 | > 100 | 50.6 | > 87 | > 100 | 80.9 | 86.6 | > 77.6 | > 100 | > 80.9 |  |  |  |  |  |  |  |  |  |  |
| Cc1cnc2oc3ccc(O)cc3c2c1-c1ccccc1 | > 100 | > 100 | 74.4 | 44.2 | > 100 | > 100 | > 100 | > 100 | > 100 | > 100 | > 100 | 27.2 | 19.6 | 9.35 | 47.5 | > 100 | 6.51 | > 100 | 21.2 | 51.6 |
| CC(C)(C)CC(C)(C)c1ccc(O)c(Cc2ccc(Cl)cc2Cl)c1 | 2.83 | 3.18 | 3.72 | 2.87 | 3.11 | 3.08 | 2.88 | 2.95 | 3.08 | 2.83 | 1.51 | 1.74 | 1.71 | 1.53 | 1.74 | 1.68 | 1.54 | 1.44 | 1.69 | 1.5 |
| O=c1cnnc(N/N=C/c2ccccc2O)[nH]1 | > 100 | > 100 | > 100 | 51.7 | > 100 | > 100 | > 100 | > 100 | 87.3 | 13.5 | 1.55 | 0.539 | 28.2 | 1.63 | 0.324 | 1.22 | 2.99 | 21 | 8.03 | 1.61 |
| CC1(C)N=C(N)N=C(N)N1c1ccc(Cl)cc1 | > 100 | > 100 | > 100 | > 100 | > 100 | > 100 | > 100 | > 100 | > 100 | > 100 | 1.25 | 18.7 | > 100 | > 100 | 11.3 | 0.854 | 6.07 | > 100 | 8.16 | > 100 |
